Values belong to the compound of their own block, whether it stands above or below them.
Tested on: 361931-004-R-J1-PDC multicell spheroid viability
Assay: Anticancer human tumor 361931-004-R-J1-PDC patient-derived colon adenocarcinoma cell line growth inhibition [PI3K]
Settings: for viability, T/C: stronger effect = lower value
Text: Combinatorial screen of targeted agents with the PI3K inhibitors inavolisib, alpelisib, duvelisib, and copanlisib in multi-cell type tumor spheroids
A high-throughput screen of multi-cell type tumor spheroids was designed to identify active combinations of targeted small molecules and PI3K pathway inhibitors. Complex spheroids include a stromal component modeled by human endothelial cells (HUVEC) and fibroblasts modeled by human mesenchymal stem cells (MSCs). The concentration ranges selected for each drug and investigational agent were based upon clinically achievable concentrations if the clinical Cmax of the agent was known.
Compounds. The drugs and investigational agents: inavolisib (NSC800729), alpelisib (NSC765974), duvelisib (NSC772469), copanlisib (NSC816437), ipatasertib (NSC767898), afuresertib (NSC778305), talazoparib (NSC767125), sapanisertib (NSC764658), selumetinib (NSC741078), tovorafenib (DAY101, NSC766906), vemurafenib (NSC761431), ravoxertinib (NSC781343), sotorasib (NSC818433), MRTX1133 (NSC 836407), abemaciclib (NSC 768073), palbociclib (NSC758247), venetoclax (NSC 766270), SY5609 (NSC837396), enzalutamide (NSC755605), and darolutamide (NSC825331), were obtained from the National Cancer Institute (NCI) Developmental Therapeutics Program Chemical Repository. The FDA-approved anticancer drug set is available from the NCI Developmental Therapeutics Program. […] The stock solutions were prepared in dimethyl sulfoxide (DMSO, Sigma-Aldrich, St. Louis, MO, cat. D2650) at 800-fold the tested concentration and stored at -70 degrees C prior to their use. All drugs and investigational agents were tested over a range starting from a high concentration at or near the clinical Cmax and decreasing in half-log increments. If the clinical Cmax for an agent had not been determined, the highest concentration tested was 10 microM.
Cell Culture. All cells were maintained in an incubator at 37 degrees C and 5% CO2 with 95% humidity. The PDC lines were cultured according to standard operating procedures established by the NCI PDMR (https://pdmr.cancer.gov/sops/default.htm). All PDCs were thawed and cultured in Matrigel-coated flasks prepared with a working solution of 1X Ham's F-12 nutrient mix, without supplementation (Invitrogen, Waltham, MA, cat. 11765054), 100 U/mL penicillin-streptomycin (Invitrogen, cat. 15140122), and 2.5% Matrigel (Corning Inc., Corning, NY, cat. 354248) for the first three passages. The 354836-022-R-J1-PDC, 475296-252-R-J1-PDC, and 997726-040-R-J2-PDC lines were cultured in 6A media, which includes advanced DMEM/F-12 (Thermo Fisher Scientific, cat. 12634028), 10 mM HEPES (Thermo Fisher Scientific, cat. 15630080), 1X GlutaMAX supplement (Thermo Fisher Scientific, cat. 35050061), 0.1 mg/mL primocin (InvivoGen, San Diego, CA, cat. ant-pm-2), 10% defined fetal bovine serum, heat inactivated (HyClone Laboratories Inc., Logan, UT, cat. SH30070.03HI), 50% L-WRN conditioned media (ATCC, cat. CRL-3276), 1.25 mM N-Acetyl-L-cysteine (Sigma-Aldrich, cat. A9165), 10 mM nicotinamide (Sigma-Aldrich, cat. N0636), 1X B-27 supplement (Thermo Fisher Scientific, cat. 17504044), 1X N-2 supplement (Thermo Fisher Scientific, cat. 17502048), and 10 microM Y-27632 dihydrochloride (Tocris Bioscience, Bristol, United Kingdom, cat. 1254). The 624824-186-R-J2-PDC line was cultured in 6C/Colon 1B media, which includes all 6A media components plus 50 ng/mL human EGF recombinant protein (Thermo Fisher Scientific, cat. PHG0311). […]

[1] = curve of first compound, second compound 0.0316 µM
[2] = curve of first compound, second compound 0.1 µM
[3] = curve of first compound, second compound 0.316 µM
[4] = curve of first compound, second compound 1 µM
[5] = curve of first compound, second compound 3.16 µM
[6] = curve of first compound, second compound 10 µM
[7] = second compound 0.0316 µM, first compound 0.0316 µM
[8] = second compound 0.0316 µM, first compound 0.1 µM
[9] = second compound 0.1 µM, first compound 0.0316 µM
[10] = second compound 0.1 µM, first compound 0.1 µM
[11] = second compound 0.316 µM, first compound 0.0316 µM
[12] = second compound 0.316 µM, first compound 0.1 µM
[13] = second compound 1 µM, first compound 0.0316 µM
[14] = second compound 1 µM, first compound 0.1 µM
[15] = second compound 3.16 µM, first compound 0.0316 µM
[16] = second compound 3.16 µM, first compound 0.1 µM
[17] = second compound 10 µM, first compound 0.0316 µM
[18] = second compound 10 µM, first compound 0.1 µM
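Also: spheroids exposed to agents for seven days before readout.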

IC50 [1]: > 10 µM
IC50 [2]: > 10 µM
IC50 [3]: > 10 µM
IC50 [4]: > 10 µM
IC50 [5]: > 10 µM
IC50 [6]: > 10 µM
Structure (SMILES): C=CC(=O)N1CCN(c2nc(=O)n(-c3c(C)ccnc3C(C)C)c3nc(-c4c(O)cccc4F)c(F)cc23)C(C)C1 (stereo not given) + Cc1nc(NC(=O)N2CCCC2C(N)=O)sc1-c1ccnc(C(C)(C)C(F)(F)F)c1
viability, T/C [7]: 91%
viability, T/C [8]: 102%
viability, T/C (second compound 0.0316 µM, first compound 0.316 µM): 87.7%
viability, T/C (second compound 0.0316 µM, first compound 1 µM): 96.5%
viability, T/C (second compound 0.0316 µM, first compound 3.16 µM): 93.3%
viability, T/C (second compound 0.0316 µM, first compound 10 µM): 73.9%
viability, T/C [9]: 91.8%
viability, T/C [10]: 96.8%
viability, T/C (second compound 0.1 µM, first compound 0.316 µM): 98.6%
viability, T/C (second compound 0.1 µM, first compound 1 µM): 99%
viability, T/C (second compound 0.1 µM, first compound 3.16 µM): 97.4%
viability, T/C (second compound 0.1 µM, first compound 10 µM): 61.7%
viability, T/C [11]: 96.6%
viability, T/C [12]: 96.7%
viability, T/C (second compound 0.316 µM, first compound 0.316 µM): 99.5%
viability, T/C (second compound 0.316 µM, first compound 1 µM): 85.2%
viability, T/C (second compound 0.316 µM, first compound 3.16 µM): 96.3%
viability, T/C (second compound 0.316 µM, first compound 10 µM): 73.5%
viability, T/C [13]: 90.2%
viability, T/C [14]: 83.4%
viability, T/C (second compound 1 µM, first compound 0.316 µM): 80.5%
viability, T/C (second compound 1 µM, first compound 1 µM): 73.6%
viability, T/C (second compound 1 µM, first compound 3.16 µM): 80.8%
viability, T/C (second compound 1 µM, first compound 10 µM): 63%
viability, T/C [15]: 74.9%
viability, T/C [16]: 85.6%
viability, T/C (second compound 3.16 µM, first compound 0.316 µM): 67%
viability, T/C (second compound 3.16 µM, first compound 1 µM): 69.9%
viability, T/C (second compound 3.16 µM, first compound 3.16 µM): 72.8%
viability, T/C (second compound 3.16 µM, first compound 10 µM): 55.5%
viability, T/C [17]: 58.4%
viability, T/C [18]: 61.2%
viability, T/C (second compound 10 µM, first compound 0.316 µM): 56.9%
viability, T/C (second compound 10 µM, first compound 1 µM): 68.3%
viability, T/C (second compound 10 µM, first compound 3.16 µM): 57.8%
viability, T/C (second compound 10 µM, first compound 10 µM): 40%

IC50 (curve of compound): > 0.1 µM
Structure (SMILES): Cn1ncnc1[C@H]1c2n[nH]c(=O)c3cc(F)cc(c23)N[C@@H]1c1ccc(F)cc1
viability, T/C (compound 0.000316 µM): 103% [middle of 4 runs]
viability, T/C (compound 0.001 µM): 99.7% [middle of 4 runs]
viability, T/C (compound 0.00316 µM): 96.5% [middle of 4 runs]
viability, T/C (compound 0.01 µM): 101% [middle of 4 runs]
viability, T/C (compound 0.0316 µM): 102% [middle of 4 runs]

IC50 [1]: > 0.1 µM
IC50 [2]: > 0.1 µM
IC50 [3]: 0.0991 µM
IC50 [4]: 0.0704 µM
IC50 [5]: 0.0541 µM
IC50 [6]: 0.0216 µM
Structure (SMILES): CC(C)n1nc(-c2ccc3oc(N)nc3c2)c2c(N)ncnc21 + Cc1nc(NC(=O)N2CCCC2C(N)=O)sc1-c1ccnc(C(C)(C)C(F)(F)F)c1
viability, T/C (second compound 0.0316 µM, first compound 0.000316 µM): 102%
viability, T/C (second compound 0.0316 µM, first compound 0.001 µM): 101%
viability, T/C (second compound 0.0316 µM, first compound 0.00316 µM): 97.8%
viability, T/C (second compound 0.0316 µM, first compound 0.01 µM): 97.8%
viability, T/C [7]: 101%
viability, T/C [8]: 64.5%
viability, T/C (second compound 0.1 µM, first compound 0.000316 µM): 108%
viability, T/C (second compound 0.1 µM, first compound 0.001 µM): 111%
viability, T/C (second compound 0.1 µM, first compound 0.00316 µM): 99.3%
viability, T/C (second compound 0.1 µM, first compound 0.01 µM): 101%
viability, T/C [9]: 90.2%
viability, T/C [10]: 58.1%
viability, T/C (second compound 0.316 µM, first compound 0.000316 µM): 106%
viability, T/C (second compound 0.316 µM, first compound 0.001 µM): 93.8%
viability, T/C (second compound 0.316 µM, first compound 0.00316 µM): 96.8%
viability, T/C (second compound 0.316 µM, first compound 0.01 µM): 93.7%
viability, T/C [11]: 88.9%
viability, T/C [12]: 49%
viability, T/C (second compound 1 µM, first compound 0.000316 µM): 94.2%
viability, T/C (second compound 1 µM, first compound 0.001 µM): 89%
viability, T/C (second compound 1 µM, first compound 0.00316 µM): 82.3%
viability, T/C (second compound 1 µM, first compound 0.01 µM): 91.3%
viability, T/C [13]: 72.9%
viability, T/C [14]: 39.9%
viability, T/C (second compound 3.16 µM, first compound 0.000316 µM): 83.9%
viability, T/C (second compound 3.16 µM, first compound 0.001 µM): 85.2%
viability, T/C (second compound 3.16 µM, first compound 0.00316 µM): 83.8%
viability, T/C (second compound 3.16 µM, first compound 0.01 µM): 68.9%
viability, T/C [15]: 72.3%
viability, T/C [16]: 29.6%
viability, T/C (second compound 10 µM, first compound 0.000316 µM): 65%
viability, T/C (second compound 10 µM, first compound 0.001 µM): 62.4%
viability, T/C (second compound 10 µM, first compound 0.00316 µM): 64%
viability, T/C (second compound 10 µM, first compound 0.01 µM): 60%
viability, T/C [17]: 45%
viability, T/C [18]: 19.2%

Source: PubChem BioAssay AID1963979 (Molecular Pharmacology Branch, DTP, NCI, 2024)
